Data reported in ChEMBL document CHEMBL5325394, “What We Have Gained from Ibogaine: α3β4 Nicotinic Acetylcholine Receptor Inhibitors as Treatments for Substance Use Disorders” (J Med Chem, 2023).
Where a SMILES comes first, the peptide text is derived from it. Bridges are numbered along the chain shown (N, C = ends).

How the values were obtained:
[1] = molecular target: T1, Neuronal acetylcholine receptor subunit alpha-7 (Homo sapiens, UniProt P36544); test: Antagonist activity at nAChR alpha7 in human SH-SY5Y cells assessed as increase in intracellular calcium level preincubated for 10 mins followed by choline addition measured after 30 mins by FLIPR assay; assay type: cell-based
T1 sequence (P36544 whole entry): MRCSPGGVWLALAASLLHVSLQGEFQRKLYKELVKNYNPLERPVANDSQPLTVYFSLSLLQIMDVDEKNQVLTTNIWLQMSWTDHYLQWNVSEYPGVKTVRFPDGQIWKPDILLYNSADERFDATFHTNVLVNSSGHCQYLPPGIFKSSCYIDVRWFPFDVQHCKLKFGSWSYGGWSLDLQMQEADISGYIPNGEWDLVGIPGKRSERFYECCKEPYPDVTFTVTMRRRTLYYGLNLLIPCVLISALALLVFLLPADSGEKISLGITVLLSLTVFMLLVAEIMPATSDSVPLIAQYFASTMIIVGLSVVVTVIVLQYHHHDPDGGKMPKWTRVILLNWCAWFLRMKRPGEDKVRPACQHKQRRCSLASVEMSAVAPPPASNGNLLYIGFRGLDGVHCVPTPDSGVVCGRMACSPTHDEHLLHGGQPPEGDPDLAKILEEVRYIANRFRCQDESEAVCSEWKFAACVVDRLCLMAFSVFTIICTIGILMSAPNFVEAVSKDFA

[2] = molecular target: T2, Neuronal acetylcholine receptor; alpha3/beta4 (Homo sapiens, UniProt P30926+P32297); test: Antagonist activity at nAChR alpha3beta4 in human SH-SY5Y cells assessed as increase in intracellular calcium level preincubated for 10 mins followed by nicotine addition measured after 30 mins by FLIPR assay; assay type: cell-based
T2 sequence (P30926 whole entry): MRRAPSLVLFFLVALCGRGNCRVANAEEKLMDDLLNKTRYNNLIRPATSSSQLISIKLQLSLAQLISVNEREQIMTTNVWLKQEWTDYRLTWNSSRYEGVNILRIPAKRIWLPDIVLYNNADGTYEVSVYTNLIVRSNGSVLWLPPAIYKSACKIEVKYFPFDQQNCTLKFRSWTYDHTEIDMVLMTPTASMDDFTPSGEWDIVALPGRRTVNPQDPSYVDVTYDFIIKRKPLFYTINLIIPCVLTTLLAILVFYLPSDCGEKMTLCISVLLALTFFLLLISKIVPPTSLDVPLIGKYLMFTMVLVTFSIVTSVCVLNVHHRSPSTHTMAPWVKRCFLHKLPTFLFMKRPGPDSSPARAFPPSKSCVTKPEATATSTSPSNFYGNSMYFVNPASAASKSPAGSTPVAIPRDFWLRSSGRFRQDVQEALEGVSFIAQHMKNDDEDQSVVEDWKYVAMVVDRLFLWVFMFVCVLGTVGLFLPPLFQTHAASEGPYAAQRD
T2 sequence (P32297 whole entry): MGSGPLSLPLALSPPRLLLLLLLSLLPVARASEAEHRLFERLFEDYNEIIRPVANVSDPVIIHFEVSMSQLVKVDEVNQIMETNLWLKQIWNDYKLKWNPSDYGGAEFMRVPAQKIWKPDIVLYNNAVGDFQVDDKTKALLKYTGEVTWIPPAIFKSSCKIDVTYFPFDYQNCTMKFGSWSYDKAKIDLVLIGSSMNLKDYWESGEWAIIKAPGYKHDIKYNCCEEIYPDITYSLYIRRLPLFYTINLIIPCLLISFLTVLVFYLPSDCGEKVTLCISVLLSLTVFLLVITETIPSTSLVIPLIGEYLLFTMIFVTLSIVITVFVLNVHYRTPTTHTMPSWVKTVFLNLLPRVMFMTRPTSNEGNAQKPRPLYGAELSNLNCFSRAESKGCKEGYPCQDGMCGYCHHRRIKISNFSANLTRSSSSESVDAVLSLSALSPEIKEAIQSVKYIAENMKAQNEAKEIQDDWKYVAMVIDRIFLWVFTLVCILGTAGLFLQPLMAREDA

[3] = molecular target: T1, Neuronal acetylcholine receptor subunit alpha-7; test: Antagonist activity at alpha7 nAChRs (unknown origin) assessed as inhibition constant
[4] = molecular target: T3, Neuronal acetylcholine receptor; alpha4/beta2 (Homo sapiens, UniProt P17787+P43681); test: Antagonist activity at alpha4beta2 nAChRs (unknown origin) assessed as inhibition constant; assay type: protein-complex assay
T3 sequence (P17787 whole entry): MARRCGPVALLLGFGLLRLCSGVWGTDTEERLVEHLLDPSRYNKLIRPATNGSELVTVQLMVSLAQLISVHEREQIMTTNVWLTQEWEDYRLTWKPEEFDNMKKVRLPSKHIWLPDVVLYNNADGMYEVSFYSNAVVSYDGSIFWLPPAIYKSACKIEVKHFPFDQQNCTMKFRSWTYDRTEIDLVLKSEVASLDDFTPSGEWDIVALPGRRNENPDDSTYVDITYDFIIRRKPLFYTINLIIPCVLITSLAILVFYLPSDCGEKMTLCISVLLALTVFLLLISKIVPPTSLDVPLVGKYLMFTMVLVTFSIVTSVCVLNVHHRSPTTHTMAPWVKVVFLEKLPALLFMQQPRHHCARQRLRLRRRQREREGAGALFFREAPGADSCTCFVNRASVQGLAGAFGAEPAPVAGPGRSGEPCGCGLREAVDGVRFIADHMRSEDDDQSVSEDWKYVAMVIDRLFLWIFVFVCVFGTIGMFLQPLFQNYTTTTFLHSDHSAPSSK
T3 sequence (P43681 whole entry): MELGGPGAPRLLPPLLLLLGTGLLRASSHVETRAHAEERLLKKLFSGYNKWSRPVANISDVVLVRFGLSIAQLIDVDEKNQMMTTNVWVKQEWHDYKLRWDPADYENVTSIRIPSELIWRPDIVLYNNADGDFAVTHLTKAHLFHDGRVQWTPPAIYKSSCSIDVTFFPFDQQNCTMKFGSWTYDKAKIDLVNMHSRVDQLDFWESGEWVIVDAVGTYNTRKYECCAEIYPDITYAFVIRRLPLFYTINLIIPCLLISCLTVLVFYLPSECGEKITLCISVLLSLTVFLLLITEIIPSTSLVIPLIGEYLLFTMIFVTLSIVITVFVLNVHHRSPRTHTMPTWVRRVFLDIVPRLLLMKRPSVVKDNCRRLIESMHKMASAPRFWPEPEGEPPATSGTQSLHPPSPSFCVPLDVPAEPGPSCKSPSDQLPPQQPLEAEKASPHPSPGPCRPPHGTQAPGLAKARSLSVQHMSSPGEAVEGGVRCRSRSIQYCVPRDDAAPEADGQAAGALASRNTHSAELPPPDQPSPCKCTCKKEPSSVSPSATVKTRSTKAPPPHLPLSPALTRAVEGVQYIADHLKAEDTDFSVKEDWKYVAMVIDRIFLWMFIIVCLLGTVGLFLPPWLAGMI

[5] = molecular target: Neuronal acetylcholine receptor; alpha3/beta4 (Rattus norvegicus, UniProt P04757+P12392); test: Antagonist activity at rat alpha3beta4 nACh receptor expressed in Xenopus oocyte by voltage-clamp based electrophysiological assay; assay type: cell-based
[6] = molecular target: T1, Neuronal acetylcholine receptor subunit alpha-7; test: Antagonist activity at human alpha7 nACh receptor expressed in Xenopus oocyte by voltage-clamp based electrophysiological assay; assay type: cell-based
[7] = molecular target: Neuronal acetylcholine receptor; alpha3/beta2 (Rattus norvegicus, UniProt P04757+P12390); test: Antagonist activity at rat alpha3beta2 nACh receptor expressed in Xenopus oocyte by voltage-clamp based electrophysiological assay; assay type: cell-based
[8] = molecular target: T4, Neuronal acetylcholine receptor; alpha4/beta2 (Rattus norvegicus, UniProt P09483+P12390); test: Antagonist activity at rat alpha4beta2 nACh receptor expressed in Xenopus oocyte by voltage-clamp based electrophysiological assay; assay type: cell-based
T4 sequence (P09483 whole entry): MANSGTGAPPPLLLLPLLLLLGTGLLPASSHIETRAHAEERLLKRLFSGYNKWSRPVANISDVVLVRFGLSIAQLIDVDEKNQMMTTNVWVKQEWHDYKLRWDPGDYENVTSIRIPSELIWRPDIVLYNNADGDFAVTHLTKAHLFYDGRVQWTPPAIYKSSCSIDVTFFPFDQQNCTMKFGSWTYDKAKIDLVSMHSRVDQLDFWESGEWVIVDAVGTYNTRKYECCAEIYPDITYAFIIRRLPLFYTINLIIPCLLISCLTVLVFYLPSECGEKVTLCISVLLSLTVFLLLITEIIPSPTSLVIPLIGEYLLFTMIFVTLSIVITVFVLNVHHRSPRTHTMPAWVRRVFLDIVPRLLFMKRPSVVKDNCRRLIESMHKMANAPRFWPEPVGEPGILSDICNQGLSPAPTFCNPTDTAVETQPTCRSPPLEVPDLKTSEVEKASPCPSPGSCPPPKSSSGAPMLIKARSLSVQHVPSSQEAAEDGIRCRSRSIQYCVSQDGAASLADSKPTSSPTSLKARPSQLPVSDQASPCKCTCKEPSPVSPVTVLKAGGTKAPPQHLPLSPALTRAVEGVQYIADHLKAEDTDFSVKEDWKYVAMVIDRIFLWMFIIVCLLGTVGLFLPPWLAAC
T4 sequence (P12390 whole entry): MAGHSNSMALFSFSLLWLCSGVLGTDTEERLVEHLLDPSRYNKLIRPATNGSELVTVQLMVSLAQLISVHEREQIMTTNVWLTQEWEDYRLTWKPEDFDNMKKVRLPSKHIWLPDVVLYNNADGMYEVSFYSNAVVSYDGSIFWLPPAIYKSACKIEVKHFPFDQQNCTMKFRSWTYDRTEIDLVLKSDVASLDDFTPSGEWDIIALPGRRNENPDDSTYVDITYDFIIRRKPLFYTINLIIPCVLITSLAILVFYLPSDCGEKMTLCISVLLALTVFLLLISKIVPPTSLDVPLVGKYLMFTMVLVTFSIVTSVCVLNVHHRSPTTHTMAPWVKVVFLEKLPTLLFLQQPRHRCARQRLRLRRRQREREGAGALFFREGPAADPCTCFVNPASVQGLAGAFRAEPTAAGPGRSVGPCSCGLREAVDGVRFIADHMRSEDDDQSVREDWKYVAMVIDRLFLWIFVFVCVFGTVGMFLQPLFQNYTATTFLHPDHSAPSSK

[9] = molecular target: T2, Neuronal acetylcholine receptor; alpha3/beta4; test: Antagonist activity at recombinant alpha3beta4 nAChR in HEK293 cells by voltage-clamp based electrophysiological method; assay type: cell-based
[10] = Displacement of [3H]-BTX-B from bovine cortex sodium channel assessed as inhibition constant; assay type: tissue-based, Bos taurus
[11] = Displacement of [3H]-MK801 from bovine cortex NMDA receptor assessed as inhibition constant; assay type: tissue-based, Bos taurus
[12] = molecular target: Sigma intracellular receptor 2 (Bos taurus, UniProt Q3MHW7); test: Displacement of [3H]-DTG from calf hippocampus sigma 2 receptor assessed as inhibition constant; assay type: tissue-based
Sigma intracellular receptor 2 (Bos taurus, UniProt Q3MHW7), sequence (Q3MHW7 whole entry): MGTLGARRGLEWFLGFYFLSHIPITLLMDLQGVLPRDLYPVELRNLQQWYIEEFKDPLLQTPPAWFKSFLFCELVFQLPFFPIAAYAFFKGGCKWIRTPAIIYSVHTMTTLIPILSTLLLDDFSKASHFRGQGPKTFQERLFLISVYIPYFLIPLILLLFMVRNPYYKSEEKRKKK

[13] = Displacement of [3H]-paroxetine from bovine brain stem 5-HT receptor assessed as inhibition constant; assay type: tissue-based, Bos taurus, Brainstem
[14] = molecular target: T2, Neuronal acetylcholine receptor; alpha3/beta4; test: Displacement of [3H]Ibogaine from human alpha3beta4 nAChRs expressed in HEK293 cells assessed as inhibition constant incubated for 2 hrs by scintillation counter analysis; assay type: cell-based
[15] = molecular target: T3, Neuronal acetylcholine receptor; alpha4/beta2; test: Antagonist activity at alpha4beta2 nAChR in HEK293 cells by voltage-clamp based electrophysiological method; assay type: cell-based
[16] = Displacement of [3H]-DPDPE from calf caudate nucleus DOR receptor assessed as inhibition constant; assay type: tissue-based, Bos taurus
[17] = Displacement of [3H]-GR-65,630 from 5-HT3 receptor in mouse NG-108 cells assessed as inhibition constant; assay type: cell-based; settings: ng-108 cell
[18] = molecular target: Mu-type opioid receptor (Bos taurus, UniProt P79350); test: Displacement of [3H]-DAGO from calf cortex MOR receptor assessed as inhibition constant; assay type: tissue-based
Mu-type opioid receptor, sequence (P79350 whole entry): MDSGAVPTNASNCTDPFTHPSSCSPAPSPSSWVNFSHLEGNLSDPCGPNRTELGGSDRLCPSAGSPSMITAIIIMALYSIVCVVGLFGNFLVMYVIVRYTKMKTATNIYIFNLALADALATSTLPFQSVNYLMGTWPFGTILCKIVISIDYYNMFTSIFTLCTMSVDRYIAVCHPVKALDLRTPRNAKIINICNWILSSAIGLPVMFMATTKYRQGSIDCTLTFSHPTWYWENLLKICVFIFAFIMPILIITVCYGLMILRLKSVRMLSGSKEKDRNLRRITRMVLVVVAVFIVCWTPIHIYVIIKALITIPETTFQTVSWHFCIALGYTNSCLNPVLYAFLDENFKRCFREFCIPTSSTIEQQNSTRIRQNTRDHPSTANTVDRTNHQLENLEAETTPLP

[19] = molecular target: T5, Muscarinic acetylcholine receptor M1 (Bos taurus, UniProt Q8WMX0); test: Displacement of [3H]-pirenzepine from calf cortex Muscarinic M1 receptor assessed as inhibition constant; assay type: tissue-based
T5 sequence (Q8WMX0 whole entry): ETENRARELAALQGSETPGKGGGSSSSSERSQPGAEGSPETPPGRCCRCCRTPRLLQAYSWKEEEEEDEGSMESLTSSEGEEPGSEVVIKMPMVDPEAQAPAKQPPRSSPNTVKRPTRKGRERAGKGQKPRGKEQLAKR

[20] = molecular target: Neuronal acetylcholine receptor subunit alpha-7 (Rattus norvegicus, UniProt Q05941); test: Binding affinity to rat alpha7 nAChR expressed in HEK cells assessed as inhibition constant measured after 2 hrs in the presence of [3H]epibatidine; assay type: cell-based
Neuronal acetylcholine receptor subunit alpha-7 (Rattus norvegicus, UniProt Q05941), sequence (Q05941 whole entry): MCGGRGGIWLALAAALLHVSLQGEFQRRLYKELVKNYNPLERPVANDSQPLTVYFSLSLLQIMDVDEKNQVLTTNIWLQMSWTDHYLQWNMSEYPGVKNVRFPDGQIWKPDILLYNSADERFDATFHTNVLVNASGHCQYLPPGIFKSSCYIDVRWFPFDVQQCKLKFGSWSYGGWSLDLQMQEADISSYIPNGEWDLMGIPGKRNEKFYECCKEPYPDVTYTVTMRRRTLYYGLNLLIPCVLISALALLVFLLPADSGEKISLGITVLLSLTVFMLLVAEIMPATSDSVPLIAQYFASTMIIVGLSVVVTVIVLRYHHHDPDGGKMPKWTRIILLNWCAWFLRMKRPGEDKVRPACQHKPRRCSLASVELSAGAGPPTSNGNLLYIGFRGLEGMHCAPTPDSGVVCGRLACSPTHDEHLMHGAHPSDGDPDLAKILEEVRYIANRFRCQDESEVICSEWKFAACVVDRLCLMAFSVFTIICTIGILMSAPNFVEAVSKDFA

[21] = molecular target: T4, Neuronal acetylcholine receptor; alpha4/beta2; test: Binding affinity to rat alpha4beta2 nAChR expressed in HEK cells assessed as inhibition constant measured after 2 hrs in the presence of [3H]epibatidine; assay type: cell-based
[22] = molecular target: Serotonin 3 (5-HT3) receptor; test: Antagonist activity at 5-HT3 receptor (unknown origin); assay type: protein-complex assay, Homo sapiens
[23] = molecular target: Sigma intracellular receptor 2 (Homo sapiens, UniProt Q5BJF2); test: Antagonist activity at sigma 2 receptor (unknown origin)
[24] = molecular target: T3, Neuronal acetylcholine receptor; alpha4/beta2; test: Antagonist activity at alpha4beta2 nAChR (unknown origin); assay type: protein-complex assay
[25] = molecular target: T6, Muscarinic acetylcholine receptor M5 (Homo sapiens, UniProt P08912); test: Antagonist activity at muscarinic M5 receptor (unknown origin); assay type: functional
T6 sequence (P08912 whole entry): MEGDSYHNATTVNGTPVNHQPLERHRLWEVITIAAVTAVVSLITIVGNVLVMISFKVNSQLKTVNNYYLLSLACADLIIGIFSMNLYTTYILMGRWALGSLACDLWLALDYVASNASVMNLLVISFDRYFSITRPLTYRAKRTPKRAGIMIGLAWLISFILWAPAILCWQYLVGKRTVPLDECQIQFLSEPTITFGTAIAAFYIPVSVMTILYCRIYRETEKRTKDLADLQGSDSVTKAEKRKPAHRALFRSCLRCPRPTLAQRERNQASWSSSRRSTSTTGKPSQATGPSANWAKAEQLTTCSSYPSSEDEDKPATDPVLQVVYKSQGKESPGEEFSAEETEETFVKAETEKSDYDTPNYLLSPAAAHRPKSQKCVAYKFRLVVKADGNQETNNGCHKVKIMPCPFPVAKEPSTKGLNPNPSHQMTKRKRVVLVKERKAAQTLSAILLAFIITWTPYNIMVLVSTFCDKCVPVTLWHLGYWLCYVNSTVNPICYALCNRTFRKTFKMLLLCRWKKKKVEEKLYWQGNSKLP

[26] = molecular target: Histamine H1 receptor (Homo sapiens, UniProt P35367); test: Antagonist activity at H1 receptor (unknown origin)
[27] = molecular target: T2, Neuronal acetylcholine receptor; alpha3/beta4; test: Displacement of [3H]imipramine from human alpha3beta4 nAChRs expressed in HEK293 cells assessed as inhibition constant incubated for 2 hrs by scintillation counter analysis; assay type: cell-based
[28] = molecular target: T1, Neuronal acetylcholine receptor subunit alpha-7; test: Inhibition of nAChR alpha7 receptor (unknown origin) assessed as inhibition of calcium flux
[29] = molecular target: T2, Neuronal acetylcholine receptor; alpha3/beta4; test: Antagonist activity at human alpha3beta4 nAChRs expressed in HEK293 cells assessed as inhibition of (+/-)-epibatidine-induced Ca+2 influx incubated for 5 mins by FLIPR analysis; assay type: cell-based
[30] = molecular target: T3, Neuronal acetylcholine receptor; alpha4/beta2; test: Inhibition of nAChR alpha4beta2 receptor (unknown origin); assay type: protein-complex assay

CC[C@H](C)[C@@H]1NC(=O)[C@H](CC(N)=O)NC(=O)[C@@H]2CCCN2C(=O)[C@H](CC(N)=O)NC(=O)[C@H](CC(C)C)NC(=O)[C@H](C(C)C)NC(=O)[C@H](Cc2ccccc2)NC(=O)[C@@H]2CSSC[C@H](NC(=O)CNC(=O)[C@@H](N)CO)C(=O)N[C@@H](CSSC[C@@H](C(=O)O)NC1=O)C(=O)N[C@@H](CO)C(=O)N[C@@H](CC(N)=O)C(=O)N1CCC[C@H]1C(=O)N[C@@H](C)C(=O)N2 (H-SGCCSNPACFVLNPNIC-OH; disulfide 3-9, 4-17)
IC50 [1]: > 100 µM | IC50 [2]: 410 nM

CNC1(C)[C@H]2CC[C@H](C2)C1(C)C (mixture of isomers)
Ki [3]: 6.9 µM | Ki [4]: 2500 nM

CC[C@H](C)[C@H](NC(=O)[C@H](Cc1cnc[nH]1)NC(=O)[C@@H]1CCCN1C(=O)[C@H](CC(N)=O)NC(=O)[C@H](CC(N)=O)NC(=O)[C@@H](NC(=O)[C@H](CC(N)=O)NC(=O)[C@H](CS)NC(=O)[C@H](C)NC(=O)[C@@H]1CCCN1C(=O)[C@H](Cc1cnc[nH]1)NC(=O)[C@H](CO)NC(=O)[C@H](CS)NC(=O)[C@H](CS)NC(=O)CN)C(C)C)C(=O)N[C@@H](CS)C(=O)O (H-GCCSHPACNVNNPHIC-OH)
IC50 [5]: 97 nM | IC50 [6]: 103 nM | IC50 [7]: 33 nM | IC50 [8]: > 100 µM

CC[C@H]1C[C@@H]2C[C@H]3c4[nH]c5ccc(OC)cc5c4CC[N@@](C2)[C@@H]13
IC50 [9]: 220 nM | Ki [10]: 3.6 nM | Ki [11]: 3.1 nM | Ki [12]: 0.4 nM | Ki [13]: 4.1 nM | Ki [14]: 1.05 nM | IC50 [15]: 1000 nM | Ki [16]: > 10 nM | Ki [17]: 2.6 nM | Ki [18]: 2 nM | Ki [19]: 16 nM

CN1C2CCCC1CC(Nc1ccccc1Br)C2 (stereo not drawn)
Ki [20]: 222 nM | Ki [21]: 477 nM | IC50 [22]: 600 nM | IC50 [23]: 418 nM | IC50 [24]: 300 nM | IC50 [25]: 325 nM | IC50 [26]: 201 nM

COCC[C@H]1C[C@H]2CN3CCc4c([nH]c5ccc(OC)cc45)[C@](C(=O)OC)(C2)[C@H]13 (racemic)
IC50 [9]: 750 nM | Ki [10]: 6.4 nM | Ki [27]: 400 nM | Ki [12]: 13 nM | IC50 [28]: 34.7 µM | IC50 [29]: 1470 nM | IC50 [15]: > 20000 nM | IC50 [30]: 6.3 µM | Ki [16]: 3.5 nM | Ki [17]: 3.8 nM | Ki [18]: 1.1 nM | Ki [19]: 32 nM
